# Test results from PubChem BioAssay (NCI).
#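 Grown in 96-well plates, cells were treated for 48 hours with each compound at five concentrations. Insufficient inhibition: endpoint recorded as highest concentration tested. The concentration for full growth arrest is given as TGI.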
# Assays:
# Assay in all cases: inhibition of tumour cell growth, NCI panel, 48 h
# [1] = tested on: TK-10 renal
# [2] = tested on: IGROV1 ovarian
# [3] = tested on: SF-295 CNS
# [4] = tested on: OVCAR-8 ovarian
# [5] = tested on: SK-MEL-28 melanoma
# [6] = tested on: CCRF-CEM leukemia
# [7] = tested on: UO-31 renal
# [8] = tested on: NCI-H522 lung
# [9] = tested on: NCI-H460 lung
# [10] = tested on: A549 NSCLC
# [11] = tested on: BT-549 breast
# [12] = tested on: RXF 393 renal
# [13] = tested on: UACC-257 melanoma
# [14] = tested on: HCT-116 colon
# [15] = tested on: SNB-75 CNS
# [16] = tested on: A498 renal
# [17] = tested on: SK-MEL-2 melanoma
# [18] = tested on: OVCAR-4 ovarian
# [19] = tested on: NCI-H226 lung
# [20] = tested on: SNB-19 CNS
# [21] = tested on: UACC-62 melanoma
# [22] = tested on: RPMI-8226 leukemia
# [23] = tested on: MOLT-4 leukemia
# [24] = tested on: SF-268 CNS
# [25] = tested on: LOX IMVI melanoma
# [26] = tested on: SW-620 colon
# [27] = tested on: MDA-N
# [28] = tested on: SK-OV-3 ovarian
# [29] = tested on: DU-145 prostate
# [30] = tested on: U251 CNS
# [31] = tested on: ACHN renal
# [32] = tested on: T-47D breast
# [33] = tested on: HCC-2998 colon
# [34] = tested on: HCT-15 colon
# [35] = tested on: SF-539 CNS
# [36] = tested on: KM12 colon
# [37] = tested on: MCF7 breast
# [38] = tested on: CAKI-1 renal
# [39] = tested on: PC-3 prostate
# [40] = tested on: M14 melanoma
# [41] = tested on: SK-MEL-5 melanoma
# [42] = tested on: EKVX NSCLC
# [43] = tested on: MDA-MB-435
# [44] = tested on: SN12C renal
# [45] = tested on: MDA-MB-231 breast
# [46] = tested on: COLO 205 colon
# [47] = tested on: K-562 leukemia
# [48] = tested on: NCI/ADR-RES ovarian
# [49] = tested on: 786-0 renal
# [50] = tested on: OVCAR-5 ovarian
# [51] = tested on: MALME-3M melanoma
# [52] = tested on: NCI-H23 lung
# [53] = tested on: SR leukemia
# [54] = tested on: HOP-62 NSCLC
# [55] = tested on: HL-60(TB) leukemia
# [56] = tested on: OVCAR-3 ovarian
# [57] = tested on: HOP-92 NSCLC
# [58] = tested on: HT29 colon
compound,measurement,setting,value
COc1ccc2c(c1)CC[C@@H]1[C@@H]2CC[C@]2(C)C(=O)/C(=C/c3ccc(C#N)cc3)C[C@@H]12,TGI,[1],> 100 µM
same,TGI,[2],> 100 µM
same,TGI,[3],> 100 µM
same,TGI,[4],> 100 µM
same,TGI,[5],> 100 µM
same,TGI,[6],> 100 µM
same,TGI,[7],> 100 µM
same,TGI,[8],> 100 µM
same,TGI,[9],> 100 µM
same,TGI,[10],> 100 µM
same,TGI,[11],> 100 µM
same,TGI,[12],> 100 µM
same,TGI,[13],> 100 µM
same,TGI,[14],> 100 µM
same,TGI,[15],> 100 µM
same,TGI,[16],> 100 µM
same,TGI,[17],> 100 µM
same,TGI,[18],> 100 µM
same,TGI,[19],> 100 µM
same,TGI,[20],> 100 µM
same,TGI,[21],> 100 µM
same,TGI,[22],> 100 µM
same,TGI,[23],> 100 µM
same,TGI,[24],> 100 µM
same,TGI,[25],> 100 µM
same,TGI,[26],> 100 µM
same,TGI,[27],> 100 µM
same,TGI,[28],> 100 µM
same,TGI,[29],> 100 µM
same,TGI,[30],> 100 µM
same,TGI,[31],> 100 µM
same,TGI,[32],> 100 µM
same,TGI,[33],> 100 µM
same,TGI,[34],> 100 µM
same,TGI,[35],> 100 µM
same,TGI,[36],> 100 µM
same,TGI,[37],> 100 µM
same,TGI,[38],> 100 µM
same,TGI,[39],> 100 µM
same,TGI,[40],> 100 µM
same,TGI,[41],> 100 µM
same,TGI,[42],> 100 µM
same,TGI,[43],> 100 µM
same,TGI,[44],> 100 µM
same,TGI,[45],> 100 µM
same,TGI,[46],> 100 µM
same,TGI,[47],> 100 µM
same,TGI,[48],> 100 µM
same,TGI,[49],> 100 µM
same,TGI,[50],> 100 µM
same,TGI,[51],> 100 µM
same,TGI,[52],> 100 µM
same,TGI,[53],> 100 µM
same,TGI,[54],> 100 µM
O=CNCCCN1CCN(CCCNC=O)CC1,TGI,[1],> 100 µM
same,TGI,[2],> 100 µM
same,TGI,[3],> 100 µM
same,TGI,[4],> 100 µM
same,TGI,[5],> 100 µM
same,TGI,[55],> 100 µM
same,TGI,[6],> 100 µM
same,TGI,[7],> 100 µM
same,TGI,[8],4.07 µM
same,TGI,[10],> 100 µM
same,TGI,[56],> 100 µM
same,TGI,[11],> 100 µM
same,TGI,[13],> 100 µM
same,TGI,[14],> 100 µM
same,TGI,[16],> 100 µM
same,TGI,[17],> 100 µM
same,TGI,[18],> 100 µM
same,TGI,[19],> 100 µM
same,TGI,[20],> 100 µM
same,TGI,[21],> 100 µM
same,TGI,[22],> 100 µM
same,TGI,[23],> 100 µM
same,TGI,[24],9.78 µM
same,TGI,[25],> 100 µM
same,TGI,[26],> 100 µM
same,TGI,[27],> 100 µM
same,TGI,[28],> 100 µM
same,TGI,[29],> 100 µM
same,TGI,[57],> 100 µM
same,TGI,[30],> 100 µM
same,TGI,[31],> 100 µM
same,TGI,[32],> 100 µM
same,TGI,[33],> 100 µM
same,TGI,[34],> 100 µM
same,TGI,[35],> 100 µM
same,TGI,[36],> 100 µM
same,TGI,[37],> 100 µM
same,TGI,[38],> 100 µM
same,TGI,[39],> 100 µM
same,TGI,[40],> 100 µM
same,TGI,[41],> 100 µM
same,TGI,[42],> 100 µM
same,TGI,[43],> 100 µM
same,TGI,[44],> 100 µM
same,TGI,[45],> 100 µM
same,TGI,[46],> 100 µM
same,TGI,[47],> 100 µM
same,TGI,[48],> 100 µM
same,TGI,[49],> 100 µM
same,TGI,[50],> 100 µM
same,TGI,[52],> 100 µM
same,TGI,[53],> 100 µM
same,TGI,[58],> 100 µM
same,TGI,[54],> 100 µM
